The record followed here is PubChem BioAssay (NCI).

Test systems include SF-295 CNS; SK-OV-3 ovarian; SK-MEL-2 melanoma; TK-10 renal; HOP-92 NSCLC; IGROV1 ovarian; KM12 colon; EKVX NSCLC; HT29 colon; M14 melanoma.
Test in all cases: DTP human tumour cell line panel, 48 h

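Grown in 96-well plates, cells were treated for 48 hours with each compound at five concentrations. Insufficient inhibition: endpoint recorded as highest concentration tested. Here, GI50 denotes the concentration required for 50% inhibition of growth. TGI denotes the concentration required for complete inhibition of growth.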 Where only a bound is given, the exact number is not on record here.

As a reminder, the GI50 is the concentration that inhibits growth by half. As a reminder, the TGI is the concentration giving total growth inhibition. High values mean less potent growth arrest, low ones more potent growth arrest. Take `COc1cccc(-c2nc3cc(NC(=O)c4ccc(Cl)c(C#N)c4)ccc3o2)c1`: the GI50 was 11.7 µM with SF-295 CNS; 2.57 µM in the assay on SK-OV-3 ovarian; 9.21 µM in the assay on SK-MEL-2 melanoma; 3.39 µM in the assay with TK-10 renal; 3.01 µM in the assay on HOP-92 NSCLC; 7.55 µM with IGROV1 ovarian. In addition, the GI50 in the assay with KM12 colon is 1.95 µM. Further, the TGI was greater than 100 µM in the assay on SF-295 CNS; 5.56 µM with SK-OV-3 ovarian; 74.2 µM with SK-MEL-2 melanoma; 9 µM in the assay on TK-10 renal; 8.56 µM in the assay on HOP-92 NSCLC; greater than 100 µM in the assay with IGROV1 ovarian. In the assay with KM12 colon, the TGI stood at 4.48 µM.

On to `COc1ccc(-c2noc(C(=O)O)c2-c2cc(OC)c(OC)c(OC)c2)cc1`, for which the GI50 was 1.57 µM in the assay on SF-295 CNS; 3.9 µM in the assay with SK-OV-3 ovarian; 4.77 µM with EKVX NSCLC; 1.5 µM in the assay with HT29 colon; 5.9 µM in the assay on SK-MEL-2 melanoma; greater than 100 µM with TK-10 renal. Moreover, the GI50 in the assay with HOP-92 NSCLC was 3.54 µM; with IGROV1 ovarian it was 4.91 µM; with KM12 colon, 0.595 µM. For the same molecule, the concentration for total growth inhibition (TGI) in the assay on SF-295 CNS, in the assay with SK-OV-3 ovarian, in the assay with EKVX NSCLC, with HT29 colon, with SK-MEL-2 melanoma and with TK-10 renal was greater than 100 µM each time. The TGI in the assay on HOP-92 NSCLC, in the assay with IGROV1 ovarian and with KM12 colon was greater than 100 µM throughout.

Consider `Cc1cc2c(C)nn(Cc3ccccc3)c2c(C(=O)O)c1C`, for which the total growth inhibition concentration (TGI) in the assay on SF-295 CNS, in the assay with SK-OV-3 ovarian, in the assay with EKVX NSCLC, with SK-MEL-2 melanoma, with TK-10 renal and in the assay with HOP-92 NSCLC was greater than 100 µM throughout. In the assay with IGROV1 ovarian, this molecule yielded a total growth inhibition concentration (TGI) greater than 100 µM.

`COc1cc(C)ccc1C(=O)c1ccc(C)cc1OC`: the GI50 is 1.32 µM in the assay with M14 melanoma; 1.95 µM with SF-295 CNS; 2.66 µM in the assay on SK-OV-3 ovarian; 5.29 µM in the assay with EKVX NSCLC; 1.85 µM in the assay on HT29 colon; 2.45 µM in the assay with SK-MEL-2 melanoma. Besides, the GI50 in the assay on TK-10 renal was 9.15 µM; in the assay with IGROV1 ovarian, 6.58 µM; in the assay with KM12 colon, 0.926 µM. Besides, the concentration for total growth inhibition (TGI) in the assay on M14 melanoma was greater than 100 µM; in the assay with SF-295 CNS, 43.4 µM; in the assay with SK-OV-3 ovarian, 14.1 µM; in the assay with EKVX NSCLC it was greater than 100 µM; in the assay with HT29 colon, 7.99 µM; in the assay on SK-MEL-2 melanoma, greater than 100 µM. For the same molecule, the concentration for total growth inhibition (TGI) in the assay on TK-10 renal, with IGROV1 ovarian and in the assay on KM12 colon was greater than 100 µM throughout.

Take `O=C(Oc1cccnc1)c1cccnc1Nc1ccnc(C(F)(F)F)c1`: the GI50 in the assay on SF-295 CNS was 44.4 µM; in the assay on SK-OV-3 ovarian it was greater than 100 µM; with EKVX NSCLC it was 51.3 µM; in the assay with HT29 colon, 30.8 µM; in the assay with SK-MEL-2 melanoma, 5.7 µM; in the assay with TK-10 renal, 17.2 µM. The GI50 in the assay on HOP-92 NSCLC was greater than 100 µM; in the assay with IGROV1 ovarian, 9.51 µM; with KM12 colon, 4.01 µM. Moreover, the TGI in the assay with SF-295 CNS was greater than 100 µM; in the assay with SK-OV-3 ovarian it was greater than 100 µM; in the assay with EKVX NSCLC, greater than 100 µM; in the assay with HT29 colon, greater than 100 µM; in the assay on SK-MEL-2 melanoma it was 62 µM; in the assay with TK-10 renal it was greater than 100 µM. Further, the TGI in the assay on HOP-92 NSCLC is greater than 100 µM; in the assay with IGROV1 ovarian, greater than 100 µM; in the assay on KM12 colon it was 18.2 µM.

`O=C1Nc2ccccc2C1(O)C/C(=N/O)c1ccc2ccccc2c1` (stereo not given): the concentration for total growth inhibition (TGI) with M14 melanoma, with SF-295 CNS, in the assay on SK-OV-3 ovarian, with EKVX NSCLC, in the assay on HT29 colon and in the assay on SK-MEL-2 melanoma was greater than 100 µM in each case. Moreover, the TGI in the assay on TK-10 renal and in the assay with KM12 colon was greater than 100 µM in each case.

For `C/C(=N/O)c1cccc(Nc2cc(-n3nnc4ccccc43)nc3ccccc23)c1`, the GI50 in the assay with M14 melanoma is 7.48 µM; in the assay on SF-295 CNS, 5.62 µM; with SK-OV-3 ovarian, 30.5 µM; in the assay on EKVX NSCLC, 8.07 µM; with HT29 colon it was 12.3 µM; in the assay with SK-MEL-2 melanoma, 28 µM. Further, the GI50 was 13.6 µM with TK-10 renal, 29.9 µM in the assay with IGROV1 ovarian and 9.48 µM in the assay with KM12 colon. The TGI with M14 melanoma is 20.3 µM; in the assay with SF-295 CNS it was 19.8 µM; in the assay with SK-OV-3 ovarian, greater than 74.2 µM; in the assay with EKVX NSCLC, greater than 32 µM; in the assay with HT29 colon it was greater than 100 µM; with SK-MEL-2 melanoma, greater than 63.2 µM. Moreover, the concentration for total growth inhibition (TGI) in the assay with TK-10 renal was 50.2 µM; with IGROV1 ovarian it was greater than 73 µM; with KM12 colon, 28.4 µM.

`O=C1C2C3C=C4c5ccccc5N(c5ccccc5)C4(C2C(=O)N1c1ccccc1)C1C(=O)N(c2ccccc2)C(=O)C31` (stereo not given): the TGI with M14 melanoma is greater than 100 µM; in the assay on SF-295 CNS, greater than 100 µM; with HT29 colon, greater than 100 µM; in the assay on SK-MEL-2 melanoma it was greater than 100 µM; in the assay on TK-10 renal, greater than 100 µM; in the assay on HOP-92 NSCLC it was 6.29 µM. In the assay on KM12 colon, the TGI is greater than 100 µM.

As for `c1ccc(C2ONC3=NCCN32)cc1` (stereo not given), the GI50 was greater than 100 µM in the assay on M14 melanoma; 48.3 µM in the assay with SF-295 CNS; 37 µM with SK-OV-3 ovarian; greater than 100 µM in the assay with EKVX NSCLC; 67.9 µM with HT29 colon; greater than 100 µM with SK-MEL-2 melanoma. The values for the GI50 with TK-10 renal, with IGROV1 ovarian and in the assay on KM12 colon were greater than 100 µM, 31.2 µM and 51.3 µM, respectively. In addition, the total growth inhibition concentration (TGI) in the assay with M14 melanoma, in the assay with SF-295 CNS, in the assay on SK-OV-3 ovarian, with EKVX NSCLC, in the assay with HT29 colon and in the assay with SK-MEL-2 melanoma was greater than 100 µM throughout. Further, the total growth inhibition concentration (TGI) in the assay with TK-10 renal, in the assay with IGROV1 ovarian and with KM12 colon was greater than 100 µM each time.

On to `O=C(/C=C/c1ccccc1)Oc1cccc2cccnc12`, for which the TGI was 14.8 µM in the assay on M14 melanoma; greater than 100 µM in the assay with SF-295 CNS; greater than 100 µM in the assay with SK-OV-3 ovarian; greater than 68.2 µM in the assay with EKVX NSCLC; 29.3 µM in the assay with HT29 colon; greater than 100 µM in the assay on TK-10 renal. Moreover, the total growth inhibition concentration (TGI) in the assay on HOP-92 NSCLC came to 81.6 µM; with IGROV1 ovarian, 32.4 µM; in the assay with KM12 colon, 32.1 µM.
